Experimental data published in paper PMC8595397, “Reproductive Regulation of PrRPs in Teleost: The Link Between Feeding and Reproduction” (Frontiers in Endocrinology, 2021).
Like-named read-outs stand apart in the source and are kept apart here. Ends that are not written are not given here.

Assays:
[1] = test system: grass carp pituitary cells; experiment: Signal transduction: LH release with inhibitors in pituitary cells; type: cell-based
[2] = test system: LHβ mRNA in grass carp pituitary cells; experiment: Signal transduction: LHβ mRNA expression with inhibitors in pituitary cells; type: cell-based
[3] = test system: GtHα mRNA in grass carp pituitary cells; experiment: Signal transduction: GtHα mRNA expression with inhibitors in pituitary cells; type: cell-based
[4] = test system: PrRPs, GnRH2 and GnRH3 mRNA in grass carp brain cells; experiment: PrRPs and GnRH mRNA expression in primary brain cells; type: cell-based; settings: E2 1 μM, 24 h
Method: (§1) In brief, 13-14 grass carp brains were obtained and separated into the required brain areas including telencephalon, hypothalamus, and optic tectum, which were cut into 0.8 mm tissue fragments using […] tissue chopper (Cavey laboratory). After washing with Minimum Essential Medium (MEM, Gibco) three times, the brain fragments were incubated with 6 mg/ml trypsin (Sigma) dissolved in the medium under the conditions of 28°C, 48 rpm for 30 min. […] The brain fragments were filtered using a 30 μm filter screen and cultured into a 24-well cell culture plate under 28°C, 5% CO2 concentration. […] After another 2 days of incubation, a single-dose E2 treatment (1 μM) was performed on the cells. […] The β-actin mRNA was used as an internal parameter to eliminate random error. Therefore, genes mRNA data as well as LH release data were easily converted as a percentage of the mean value (as “% Ctrl”). The data presented (as Mean ± SEM) collected results from 4-8 parallel group experiments and analyzed with ANOVA.

[5] = test system: PrRP-Rs mRNA in grass carp brain cells; experiment: PrRP-Rs mRNA expression in primary brain cells; type: cell-based; settings: E2 1 μM, 24 h
Method: as §1

prepubertal zebrafish = test system: prepubertal zebrafish; design: method as in PMID 22689988; settings: cited from earlier work
PrRP-R1a = target: T1, PrRP-R1a (Ctenopharyngodon idella, UniProt A0A4P9NKE7); experiment: cell-based; design: species or system grass carp (Ctenopharyngodon idellus)
T1 sequence (A0A4P9NKE7 1-371): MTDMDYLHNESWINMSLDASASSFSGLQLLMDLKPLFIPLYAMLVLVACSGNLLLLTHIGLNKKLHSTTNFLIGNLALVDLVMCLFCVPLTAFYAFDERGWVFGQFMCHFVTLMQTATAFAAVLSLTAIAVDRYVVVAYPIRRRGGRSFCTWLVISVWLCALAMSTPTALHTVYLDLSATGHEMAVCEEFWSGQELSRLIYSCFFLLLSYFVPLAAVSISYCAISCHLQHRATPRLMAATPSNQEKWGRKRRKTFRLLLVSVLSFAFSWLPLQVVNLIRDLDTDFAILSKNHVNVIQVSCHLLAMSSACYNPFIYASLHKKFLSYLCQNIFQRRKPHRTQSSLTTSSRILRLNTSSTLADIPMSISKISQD

PrRP-R1b = target: T2, PrRP-R1b (Ctenopharyngodon idella, UniProt A0A4P9NKE2); experiment: cell-based; design: species or system grass carp (Ctenopharyngodon idellus)
T2 sequence (A0A4P9NKE2 1-377): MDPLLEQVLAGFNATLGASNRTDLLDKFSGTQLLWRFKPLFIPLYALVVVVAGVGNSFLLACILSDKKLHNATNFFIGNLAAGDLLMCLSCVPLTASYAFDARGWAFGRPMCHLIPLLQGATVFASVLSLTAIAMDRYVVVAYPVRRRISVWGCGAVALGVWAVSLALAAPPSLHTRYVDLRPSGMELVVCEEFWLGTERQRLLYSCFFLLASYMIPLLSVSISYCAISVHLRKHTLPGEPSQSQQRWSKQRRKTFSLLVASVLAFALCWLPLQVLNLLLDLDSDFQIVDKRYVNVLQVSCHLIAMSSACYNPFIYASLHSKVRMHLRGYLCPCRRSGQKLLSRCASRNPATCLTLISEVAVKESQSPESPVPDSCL

PrRP-R2a = target: T3, PrRP-R2a (Ctenopharyngodon idella, UniProt A0A4V1HW94); experiment: cell-based; design: species or system grass carp (Ctenopharyngodon idellus)
T3 sequence (A0A4V1HW94 1-370): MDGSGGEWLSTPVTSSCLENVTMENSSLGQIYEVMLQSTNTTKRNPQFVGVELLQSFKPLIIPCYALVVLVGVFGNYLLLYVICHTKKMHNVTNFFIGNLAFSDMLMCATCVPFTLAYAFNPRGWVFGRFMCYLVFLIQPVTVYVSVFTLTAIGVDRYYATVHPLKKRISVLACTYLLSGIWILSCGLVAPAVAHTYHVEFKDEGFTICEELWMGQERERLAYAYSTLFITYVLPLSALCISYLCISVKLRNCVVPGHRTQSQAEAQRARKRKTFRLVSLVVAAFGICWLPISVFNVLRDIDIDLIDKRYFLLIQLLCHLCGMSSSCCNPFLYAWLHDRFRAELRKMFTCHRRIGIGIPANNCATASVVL

hPrRPR = target: T4, hPrRPR (Homo sapiens, UniProt P49683); experiment: NFAT-luc reporter assay, functional expression of hPrRPR in HEK-293T cells; type: cell-based
T4 construct: the full-length open reading frame (ORF) of human PrRP receptor (hPrRPR); expressed in transfected cells; host or cells: HEK-293T
T4 sequence (P49683 1-370): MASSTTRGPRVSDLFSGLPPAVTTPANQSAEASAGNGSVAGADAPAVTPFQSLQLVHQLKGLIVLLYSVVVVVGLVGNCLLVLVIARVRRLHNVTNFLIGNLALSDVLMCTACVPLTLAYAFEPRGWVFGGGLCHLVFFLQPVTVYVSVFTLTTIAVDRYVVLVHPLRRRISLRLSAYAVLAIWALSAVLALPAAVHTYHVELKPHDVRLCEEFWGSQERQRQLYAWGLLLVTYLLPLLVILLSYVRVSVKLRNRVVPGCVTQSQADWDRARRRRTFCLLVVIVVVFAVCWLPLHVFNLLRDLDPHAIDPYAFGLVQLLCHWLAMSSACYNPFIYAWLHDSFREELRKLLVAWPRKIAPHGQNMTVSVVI

[6] = PrRP1 or PrRP2 1 μM, MDL12330A 20 μM, H89 20 μM, U73122 10 μM, GF109203X 20 μM, 2-APB 100 μM, nifedipine 10 μM, calmidazolium 1 μM, KN62 5 μM
[7] = sheet prrp1, block PKA, PrRP1 1 μM, MDL12330A 20 μM, H89 20 μM, 24 h, mean
[8] = sheet prrp2, block r2-8, PrRP2 1 μM, MDL12330A 20 μM, H89 20 μM, 24 h, mean
[9] = sheet prrp1, block Nifedipine, CMZ, KN62 (r33-40), PrRP1 1 μM, nifedipine 10 μM, calmidazolium 1 μM, KN62 5 μM, 24 h, mean
[10] = sheet prrp1, block r21-30, PrRP1 1 μM, U73122 10 μM, 2-APB 100 μM, KN62 5 μM, nifedipine 10 μM, 24 h, mean
[11] = sheet prrp2, block r27-32, PrRP2 1 μM, CMZ 1 μM, KN62 5 μM, 24 h, mean
[12] = sheet prrp1, block r21-32, PrRP1 1 μM, U73122 10 μM, 2-APB 100 μM, KN62 5 μM, nifedipine 10 μM, calmidazolium 1 μM, 24 h, mean
[13] = sheet prrp2, block r25-30, PrRP2 1 μM, CMZ 1 μM, KN62 5 μM, 24 h, mean
[14] = sheet prrp1, block PKC (r14-19), PrRP1 1 μM, U73122 10 μM, GF109203X 20 μM, 24 h, mean
[15] = sheet prrp2, block r10-15, PrRP2 1 μM, U73122 10 μM, GF109203X 20 μM, 24 h, mean
[16] = HEK-293T, NFAT-luc reporter, 24 h, 37°C, GraphPad Prism 7, read-out: EC50, hPrRPR

NCCOB(c1ccccc1)c1ccccc1 [2-APB]
effect on PrRPs-induced LH secretion and mRNA expression (in words) [1]: could also block PrRPs-induced LH secretion and mRNA expression
LHβ mRNA expression [2]: 7.49 % Ctrl
GtHα mRNA expression [3]: 30.7224 % Ctrl

C[C@]12CC[C@@H]3c4ccc(O)cc4CC[C@H]3[C@@H]1CC[C@@H]2O [E2, seventeen β-estradiol]
GnRH3 mRNA expression (in words) [4]: significantly induce
PrRP1 mRNA expression (in words) [4]: significantly induce
gnrh3 mRNA expression (CTR = 1) ([4]; mean): 2.33
prrp1 mRNA expression (CTR = 1) ([4]; mean): 1.32
four PrRP-Rs mRNA expression (in words) [5]: significantly induced
prrp1a mRNA expression (CTR = 1) ([5]; mean): 2.26
prrp1b mRNA expression (CTR = 1) ([5]; mean): 2.14
prrp2a mRNA expression (CTR = 1) ([5]; mean): 1.37
prrp2b mRNA expression (CTR = 1) ([5]; mean): 2.25
expression of key genes involved in reproduction (GnRH3, Kiss2, and Tac3) (in words) (prepubertal zebrafish): enhanced the expression of the key genes involved in reproduction

CN(C)CCCn1cc(C2=C(c3c[nH]c4ccccc34)C(=O)NC2=O)c2ccccc21 [GF109203X]
effect on PrRPs-induced LH secretion and mRNA expression (in words) [1]: could also block PrRPs-induced LH secretion and mRNA expression
LHβ mRNA expression [2]: 101.639 % Ctrl
GtHα mRNA expression [3]: 66.101 % Ctrl

O=S(=O)(NCCNC/C=C/c1ccc(Br)cc1)c1cccc2cnccc12 [H89]
effect on PrRPs-induced LH secretion and mRNA expression (in words) [1, 6]: could be blocked by co-treatment
LHβ mRNA expression [2, 7]: 92.1677 % Ctrl
LHβ mRNA expression [2, 8]: 65.1638 % Ctrl
GtHα mRNA expression [3, 7]: 38.3512 % Ctrl
GtHα mRNA expression [3, 8]: 38.3512 % Ctrl

CN([C@@H](Cc1ccc(OS(=O)(=O)c2cccc3cnccc23)cc1)C(=O)N1CCN(c2ccccc2)CC1)S(=O)(=O)c1cccc2cnccc12 [KN62]
effect on PrRPs-induced LH secretion and mRNA expression (in words) [1, 6]: could also block PrRPs-induced LH secretion and mRNA expression
LHβ mRNA expression [2, 9]: 112.35 % Ctrl
LHβ mRNA expression [2, 10]: 112.35 % Ctrl
LHβ mRNA expression [2, 11]: 112.35 % Ctrl
GtHα mRNA expression [3, 12]: 119.519 % Ctrl
GtHα mRNA expression [3, 13]: 119.519 % Ctrl

Cl.c1ccc(C2CCCC2NC2=NCCCCCCCCCCC2)cc1 (centres unmarked) [MDL12330A]
effect on PrRPs-induced LH secretion and mRNA expression (in words) [1, 6]: could be blocked by co-treatment
LHβ mRNA expression [2, 7]: 19.5731 % Ctrl
LHβ mRNA expression [2, 8]: 52.4857 % Ctrl
GtHα mRNA expression [3, 7]: 33.647 % Ctrl
GtHα mRNA expression [3, 8]: 33.647 % Ctrl

COc1ccc2c(c1)CC[C@@H]1[C@@H]2CC[C@]2(C)[C@@H](NCCCCCCN3C(=O)C=CC3=O)CC[C@@H]12 [U73122]
effect on PrRPs-induced LH secretion and mRNA expression (in words) [1, 6]: could also block PrRPs-induced LH secretion and mRNA expression
LHβ mRNA expression [2, 14]: 16.4413 % Ctrl
LHβ mRNA expression [2, 10]: 16.4413 % Ctrl
LHβ mRNA expression [2, 15]: 16.4413 % Ctrl
GtHα mRNA expression [3, 14]: 19.2973 % Ctrl
GtHα mRNA expression [3, 12]: 19.2973 % Ctrl
GtHα mRNA expression [3, 15]: 19.2973 % Ctrl

Clc1ccc(C(c2ccc(Cl)cc2)n2cc[n+](CC(OCc3ccc(Cl)cc3Cl)c3ccc(Cl)cc3Cl)c2)cc1 (centres unmarked) [calmidazolium]
effect on PrRPs-induced LH secretion and mRNA expression (in words) [1, 6]: could also block PrRPs-induced LH secretion and mRNA expression
LHβ mRNA expression [2, 9]: 13.098 % Ctrl
LHβ mRNA expression [2, 11]: 13.098 % Ctrl
GtHα mRNA expression [3, 12]: 36.6785 % Ctrl
GtHα mRNA expression [3, 13]: 48.844 % Ctrl

COC(=O)C1=C(C)NC(C)=C(C(=O)OC)C1c1ccccc1[N+](=O)[O-] [nifedipine]
effect on PrRPs-induced LH secretion and mRNA expression (in words) [1, 6]: could also block PrRPs-induced LH secretion and mRNA expression
LHβ mRNA expression [2, 9]: 48.7223 % Ctrl
LHβ mRNA expression [2, 10]: 48.7223 % Ctrl
LHβ mRNA expression ([2]; sheet prrp2, block r18-23, PrRP2 1 μM, 2-APB 100 μM, nifedipine 10 μM, 24 h, mean): 48.7223 % Ctrl
GtHα mRNA expression [3, 12]: 77.477 % Ctrl
GtHα mRNA expression ([3]; sheet prrp2, block r17-22, PrRP2 1 μM, 2-APB 100 μM, nifedipine 10 μM, 24 h, mean): 72.5728 % Ctrl

DPNIDAVWYKGRGIRPVGRF-NH2 [PrRP2]
EC50 (PrRP-R1a): 3160 nM
EC50 (PrRP-R1b): 615 nM
EC50 (PrRP-R2a): 78.9 nM
EC50 (hPrRPR; [16]): 52.4 nM

SPEIDPFWYVGRGVRPIGRF-NH2 [PrRP1]
EC50 (PrRP-R1a): 85.3 nM
EC50 (PrRP-R1b): 192 nM
EC50 (PrRP-R2a): 720 nM
EC50 (hPrRPR): 182 nM

TPDINPAWYASRGIRPVGRF-NH2 [hPrRP]
EC50 (PrRP-R1a): 1110 nM
EC50 (PrRP-R1b): 2180 nM
EC50 (PrRP-R2a): 940 nM
EC50 (hPrRPR; [16]): 191 nM
